Assay results published in patent US4153724A, “Benzoyl phenoxy acetic acid derivatives” (Kaken Chemical Co., Ltd., priority 1976, dated 1979).
Like-named read-outs stand apart in the source and are kept apart here.

Assays:
Rats with hyperlipidemia = experiment: Test 2: antihyperlipidemic activity in rats with dietary hyperlipidemia; assay type: in vivo, Wister type male rats; conditions: 200 mg/kg oral, 4 days adm.
Protocol: The antihyperlipidemic activity in rats with dietary hyperlipidemia.
In the tests, Wister type male rats (weight: 140 g) were used in groups of 6 each.
A feed containing 2% of cholesterol, 1% of sodium cholate and 5% of cocconut oil was given for 4 days to cause hyperlipidemia.
Each active ingredient was suspended in a 1% aqueous solution of Tween 80 and the suspension was orally administrated in a dose of 100 mg/Kg or 200 mg/Kg once daily for 4 days starting with the supply of the cholesterol supplemented diet.
After 24 hours from the final administration, blood was sampled and the concentration of total cholesterols and the concentration of triglyceride were measured by the methods of Test 1.

Normal mice [1] = experiment: Test 1: hypolipidemic activity in normal mice; assay type: in vivo, ICR type male mice; conditions: 200 mg/kg oral, 1 time adm., 24 h
Protocol: The hypolipidemic activity in normal mice (lowering effect of normal blood lipid level).
In the tests, ICR type male mice (weight: about 35 g) were used in groups of 6 each.
Each active ingredient was suspended in a 1% aqueous solution of Tween-80 (polyoxyethylene sorbitane monoalkylate) (Atlas Co.) and the suspension was orally administrated in a dose of 200 mg/Kg.
After 24 hours from the administration, blood was sampled and the concentration of total cholesterols in blood-plasma was measured by the method described in Clinical chemistry Vol. 22 page 393 (1968) and the concentraton of triglyceride (neutral fat) was measured by Fletcher method (Clinica Chimica Acta) Vol. 10 page 451 (1964).
As the active ingredients, the compounds (I) and ethyl-α-(p-chlorophenoxy)-isobutylate having the formula [drawing 17] were used.
The same tests for hypolipidemic activity (lowering of blood lipid level) were carried out by using the reference compounds (IV).

Test 3: acute toxicity = conditions: mouse, in vivo
Protocol: In the acute toxicity tests, male mice (weight: 22 to 25 g) were used in groups of 10 each.
Eash active ingredient was dissolved in olive oil and the solution was orally administrated in a volume corresponding to the body weight.
LD50 was calculated by the area method from the mortal percent after 72 hours from the administration.
The compound numbers are the same with those of Tables 1 and 2.

Normal mice [2] = experiment: Test 1: hypolipidemic activity in normal mice; assay type: in vivo, ICR type male mice; conditions: Mus musculus, 24 h, Table 4, reference compounds (IV), 1 time adm.
[3] = found by the administration of ethyl-α-(p-chlorophenoxy)-isobutyrate; cited from earlier work
[4] = series (a), comparison with compound 1 (P-control 141.9)
[5] = series (a), comparison with compound 1 (P-control 302.4)
[6] = series (b), comparison with compounds 2-12 (P-control 92.0, Normal 37.6)
[7] = series (b), comparison with compounds 2-12 (P-control 260.0, Normal 57.2)
[8] = series (a), comparison with compound 1 (Normal 62.6)
[9] = series (a), comparison with compound 1 (Normal 83.6)
[10] = series (b), comparison with compounds 2-12 (Normal 52.0)
[11] = series (b), comparison with compounds 2-12 (Normal 69.3)
[12] = Table 3, male mice, oral in olive oil, 72 hours, read-out: LD50 oral
[13] = read-out: Total cholesterol (lowering of blood lipid level)
[14] = read-out: Triglyceride (lowering of blood lipid level)
[15] = po, Table 4, reference compounds (IV), read-out: LD50

Compound | Decrease of triglyceride (Rats with hyperlipidemia; [6]) | Serum total cholesterol concentration (Rats with hyperlipidemia; [7]) | Decrease of triglyceride (Normal mice [1]; [10]) | Decrease of cholesterol (Normal mice [1]; [11]) | LD50 at 72 h (Test 3: acute toxicity; [12]) | inhibition in vivo at 200 mg/kg (Normal mice [2]; [13]) | inhibition in vivo at 200 mg/kg (Normal mice [2]; [14]) | LD50 at 72 h (Test 3: acute toxicity; [15]) | further results
CCOC(=O)C(C)(C)Oc1ccc(Cl)cc1 [***, ethyl-α-(p-chlorophenoxy)-isobutylate, reference compound] | 62.5 ± 9.5 mg/dL | 258.5 ± 16.0 mg/dL | 46.8 ± 3.5 mg/dL | 55.4 ± 3.1 mg/dL | 1500 mg/kg | 15% | 10% | – | Decrease of triglyceride (Rats with hyperlipidemia; [4]): 80.9 ± 17.8 mg/dL; Serum total cholesterol concentration (Rats with hyperlipidemia; [5]): 285.5 ± 25.3 mg/dL; Decrease of triglyceride (Normal mice [1]; [8]): 46.6 ± 7.3 mg/dL; Decrease of cholesterol (Normal mice [1]; [9]): 69.0 ± 5.3 mg/dL; hepatic disease (hepatitis) [3]: found
CCOC(=O)C(Oc1ccc(C(=O)c2ccc(Cl)cc2)cc1)C1CCCCC1 (centres unmarked) [Invention Compound 1, Ethyl 2-[p-(4-chlorobenzoyl)-phenoxy]-cyclohexyl acetate] | – | – | – | – | 2500 mg/kg | – | – | – | Decrease of triglyceride (Rats with hyperlipidemia; [4]): 69.7 ± 13.8 mg/dL; Serum total cholesterol concentration (Rats with hyperlipidemia; [5]): 126.5 ± 8.1 mg/dL; Decrease of triglyceride (Normal mice [1]; [8]): 52.2 ± 7.6 mg/dL; Decrease of cholesterol (Normal mice [1]; [9]): 59.4 ± 4.8 mg/dL
CCOC(=O)C(Oc1ccc(C(=O)c2ccc(F)cc2)cc1)C1CCCCC1 (centres unmarked) [Invention Compound 2, Ethyl-2-[p-(4-fluorobenzoyl)-phenoxy]-cyclohexyl acetate] | 88.5 ± 12.3 mg/dL | 215.3 ± 6.7 mg/dL | – | – | 1000 mg/kg | – | – | – | –
CCOC(=O)C(Oc1ccc(C(=O)c2ccccc2)cc1)C1CCCCC1 (centres unmarked) [Invention Compound 3] | 81.6 ± 7.3 mg/dL | 211.0 ± 5.5 mg/dL | 60.1 ± 2.8 mg/dL | 66.6 ± 1.9 mg/dL | 1000 mg/kg | – | – | – | –
CCOC(=O)C(Oc1ccc(C(=O)c2ccc(OC)cc2)cc1)C1CCCCC1 (centres unmarked) [Invention Compound 4] | 88.7 ± 8.9 mg/dL | 187.0 ± 18.1 mg/dL | 38.2 ± 2.5 mg/dL | 51.9 ± 2.6 mg/dL | 2500 mg/kg | – | – | – | –
CCOC(=O)C(Oc1ccc(C(=O)c2cccc(F)c2)cc1)C1CCCCC1 (centres unmarked) [Invention Compound 5] | 90.3 ± 16.8 mg/dL | 147.5 ± 8.3 mg/dL | 60.0 ± 4.2 mg/dL | 54.5 ± 2.6 mg/dL | 3500 mg/kg | – | – | – | –
CCOC(=O)C(Oc1ccc(C(=O)c2ccccc2F)cc1)C1CCCCC1 (centres unmarked) [Invention Compound 6] | 89.2 ± 15.6 mg/dL | 243.0 ± 6.1 mg/dL | – | – | 1000 mg/kg | – | – | – | –
CCOC(=O)C(Oc1ccc(C(=O)c2cccc(Cl)c2)cc1)C1CCCCC1 (centres unmarked) [Invention Compound 7, Ethyl 2-[p-(3-chlorobenzoyl)-phenoxy]-cyclohexyl acetate] | 52.1 ± 9.0 mg/dL | 123.8 ± 9.1 mg/dL | 45.5 ± 5.4 mg/dL | 56.4 ± 5.1 mg/dL | 2500 mg/kg | – | – | – | –
CCOC(=O)C(Oc1ccc(C(=O)c2ccccc2Cl)cc1)C1CCCCC1 (centres unmarked) [Invention Compound 8] | 75.6 ± 8.3 mg/dL | 185.4 ± 7.1 mg/dL | – | – | 1000 mg/kg | – | – | – | –
CCOC(=O)C(Oc1ccc(C(=O)c2ccc(C)cc2)cc1)C1CCCCC1 (centres unmarked) [Invention Compound 9, Ethyl 2-[p-(4-methylbenzoyl)-phenoxy]-cyclohexyl acetate] | 58.5 ± 6.7 mg/dL | 188.7 ± 18.4 mg/dL | 56.9 ± 6.1 mg/dL | 59.1 ± 3.4 mg/dL | 3500 mg/kg | – | – | – | –
CCOC(=O)C(Oc1ccc(C(=O)c2cccc(C)c2)cc1)C1CCCCC1 (centres unmarked) [Invention Compound 10] | 73.6 ± 10.0 mg/dL | 196.1 ± 13.2 mg/dL | – | – | 3000 mg/kg | – | – | – | –
CCOC(=O)C(Oc1ccc(C(=O)c2ccccc2C)cc1)C1CCCCC1 (centres unmarked) [Invention Compound 11] | 89.4 ± 7.7 mg/dL | 203.5 ± 12.1 mg/dL | – | – | 700 mg/kg | – | – | – | –
CCOC(=O)C(Oc1ccc(C(=O)c2ccccc2F)cc1)c1ccccc1 (centres unmarked) [compound 1] | – | – | – | – | – | 18% | 36% | 1500 mg/kg | –
CCOC(=O)C(Oc1ccc(C(=O)c2cccc(F)c2)cc1)c1ccccc1 (centres unmarked) [compound 3] | – | – | – | – | – | 16% | 19% | 2000 mg/kg | –
CCOC(=O)C(Oc1ccc(C(=O)c2ccc(F)cc2)cc1)c1ccccc1 (centres unmarked) [compound 5] | – | – | – | – | – | 21% | 1% | 1500 mg/kg | –
CCOC(=O)C(Oc1ccc(C(=O)c2ccccc2Cl)cc1)c1ccccc1 (centres unmarked) [compound 7, Ethyl 2-[p-(2-chlorobenzoyl)-phenoxy]phenyl acetate] | – | – | – | – | – | 16% | 8% | > 10000 mg/kg | –
CCOC(=O)C(Oc1ccc(C(=O)c2ccc(Cl)cc2)cc1)c1ccccc1 (centres unmarked) [compound 11, Ethyl 2-[p-(4-chlorobenzoyl)-phenoxy]phenyl acetate] | – | – | – | – | – | 24% | 52% | 3000 mg/kg | –
CCOC(=O)C(Oc1ccc(C(=O)c2ccccc2C)cc1)c1ccccc1 (centres unmarked) [compound 13, ethyl 2-[p-(2-methylbenzoyl)-phenoxy] phenyl acetate] | – | – | – | – | – | 27.7% | 41.9% | > 2000 mg/kg | –
Cc1ccccc1C(=O)c1ccc(OC(C(=O)O)c2ccccc2)cc1 (centres unmarked) [compound 14, 2-[P-(2-methylbenzoyl)-phenoxy]phenyl acetic acid] | – | – | – | – | – | 21% | 2% | – | –
O=C(c1ccccc1)c1ccc(OC(C(=O)O)c2ccccc2)cc1 (centres unmarked) [compound 20] | – | – | – | – | – | 19% | 7% | > 3000 mg/kg | –
